The test system of the assay is U2OS_Bim cells. As to the kind of experiment: Apoptosis inhibition assay (Bim-induced apoptosis, cell viability by ATP level). The class given is cell-based. The procedure: A chemical library containing 200000 compounds was screened according to the following procedure: U2OS_Bim cells (a cell line in which the BH3-only protein Bim can be inducibly expressed by the addition of Doxycycline to the growth medium)^[2] were plated in 384-well plates with 30 μl medium at a density of 500 cells per well. 16 hrs after plating, test compounds were transferred from stock plates to the assay plates with the cultured cells. Positive control (20 μM zVAD) and negative control (DMSO) were added to every plate. 1 hr after compound treatment, 0.1 ug/mL Doxycyclin (DOX) was added to induce the expression of the Bim protein. After 24 hrs, cell viability was determined by measuring the ATP levels using a Cell Titer-Glo kit (Promega, G7570) according to the manufacturer's instructions. Luminescence was recorded with a PerkinElmer EnSpire Multimode Plate Reader. Compounds that could rescue cell viability to a level above 50% were selected; these compounds were then screened a second time for assurance.
U2OS_Bim or U2OS_tBid cells were plated at a density of 3000 cells per well in 96-well plates. 24 hrs later, cells were treated with experimental compounds, zVAD (positive control) and DMSO (Negative control) for one hour. The cells were then treated with 0.1 μg/mL DOX to trigger apoptosis. 24 hours after the addition of DOX, cell viability was determined by measuring the ATP levels using a Cell Titer-Glo kit. Cell survival rate was calculated.
U2OS_Bim cells (a U2OS stable cell line transfected with a Bim transgene) were cultured in DMEM culture medium (Gibico). On day one, U2OS_Bim cells were plated in 96-well plates at a density of 3000 cells per well. On day two, cells were pretreated with compounds for one hour. Then cells were treated with 0.1 μg/mL doxycycline (DOX) to trigger apoptosis. 24 hours after DOX treatment, cell viability was determined by measuring the ATP levels using the Cell Titer-Glo kit (G7570, Promega), according to the manufacturer's instructions. Luminescence was recorded with a PerkinElmer EnSpire Multimode Plate Reader. Survived cells were normalized to those cells treated with DMSO. zVAD (20 μM) was used as a positive control. Activity data for compounds […] are represented as means f standard deviation of duplicates; activity data for compounds 187-274 are estimated based on preliminary results.

Where [1] appears, read: U2OS_Bim cells, means of duplicates, numbering of Tables 4a/4b, read-out: EC50.

Where two headings read alike, the source gives them in different places.

Regarding `C[S+]([O-])c1nc(-c2cccc(Oc3ccccc3)c2)cc(C(F)(F)F)n1` (stereo not drawn) [Compound 74, 2-(methylsulfinyl)-4-(3-phenoxyphenyl)-6-(trifluoromethyl)pyrimidine], the EC50 (as a rule, the concentration that produces a half-maximal response) under setting [1] is under 100 µM. As to `CS(=O)(=O)c1nc(-c2cccc(OCc3ccccc3)c2)cc(C(F)(F)F)n1` [Compound 75, 4-(3-(benzyloxy)phenyl)-2-(methylsulfonyl)-6-(trifluoromethyl)pyrimidine], the half-maximal effective concentration (EC50) fell in the range of 1 to 20 µM. For `CS(=O)(=O)c1nc(-c2cccc3ccccc23)cc(C(F)(F)F)n1` [Compound 76, 2-(methylsulfonyl)-4-(naphthalen-1-yl)-6-(trifluoromethyl)pyrimidine], the EC50 under setting [1] was 1 to 20 µM. On to `C[S+]([O-])c1nc(-c2cccc3ccccc23)cc(C(F)(F)F)n1` (stereo not drawn) [Compound 77, 2-(methylsulfinyl)-4-(naphthalen-1-yl)-6-(trifluoromethyl)pyrimidine], for which the EC50 under setting [1] was under 100 µM. On the same count and under the same terms, next, `COc1ncccc1-c1cc(C(F)(F)F)nc(S(C)(=O)=O)n1` [Compound 78, 4-(2-methoxypyridin-3-yl)-2-(methylsulfonyl)-6-(trifluoromethyl)pyrimidine]: under 100 µM. As to `COc1ncccc1-c1cc(C(F)(F)F)nc([S+](C)[O-])n1` (stereo not drawn) [Compound 79, 4-(2-Methoxypyridin-3-yl)-2-(methylsulfinyl)-6-(trifluoromethyl)pyrimidine], under setting [1], the EC50 is under 100 µM.

Consider `CS(=O)(=O)c1nc(-c2ccc[nH]c2=O)cc(C(F)(F)F)n1` [Compound 80, 3-(2-(methylsulfonyl)-6-(trifluoromethyl)pyrimidin-4-yl)pyridin-2 (1H)-one], for which the EC50 under setting [1] is under 100 µM. On the same count and under the same terms, the same measure for `C[S+]([O-])c1nc(-c2ccc[nH]c2=O)cc(C(F)(F)F)n1` (stereo not drawn) [Compound 81, 3-(2-(methylsulfinyl)-6-(trifluoromethyl)pyrimidin-4-yl)pyridin-2 (1H)-one]: under 100 µM; for `C[S+]([O-])c1nc(N2CCOCC2)cc(C(F)(F)F)n1` (stereo not drawn) [Compound 82, 4-(2-(methylsulfinyl)-6-(trifluoromethyl)pyrimidin-4-yl)morpholine]: under 100 µM.

Turning to `CS(=O)(=O)c1nc(-n2cccn2)cc(C(F)(F)F)n1` [Compound 83, 2-(methylsulfonyl)-4-(1H-pyrazol-1-yl)-6-(trifluoromethyl)pyrimidine], the EC50 under setting [1] is 1 to 10 µM. For the molecule `CS(=O)(=O)c1nc(-c2ccc[nH]2)cc(C(F)(F)F)n1` [Compound 84, 2-(methylsulfonyl)-4-(1H-pyrrol-2-yl)-6-(trifluoromethyl)pyrimidine], the EC50 under setting [1] is 1 to 10 µM. On to `COc1ccc(Cn2cccc2-c2cc(C(F)(F)F)nc(S(C)(=O)=O)n2)cc1OC` [Compound 85, 4-(1-(3,4-dimethoxybenzyl)-1H-pyrrol-2-yl)-2-(methylsulfonyl)-6-(trifluoromethyl)pyrimidine], for which, under setting [1], the EC50 fell in the range of 1 to 10 µM. With `COc1ccc(Cn2cccc2-c2cc(C(F)(F)F)nc([S+](C)[O-])n2)cc1OC` (stereo not drawn) [Compound 86, 4-(1-(3,4-dimethoxybenzyl)-1H-pyrrol-2-yl)-2-(methylsulfinyl)-6-(trifluoromethyl)pyrimidine], the 50% effective concentration (EC50) under setting [1] was under 100 µM. On to `CS(=O)(=O)c1nc(-c2cc[nH]c2)cc(C(F)(F)F)n1` [Compound 87, 2-(methylsulfonyl)-4-(1H-pyrrol-3-yl)-6-(trifluoromethyl)pyrimidine], for which the EC50 under setting [1] was under 100 µM. Still for that read-out and setting: next, `C[S+]([O-])c1nc(-c2cc[nH]c2)cc(C(F)(F)F)n1` (stereo not drawn) [Compound 88, 2-(methylsulfinyl)-4-(1H-pyrrol-3-yl)-6-(trifluoromethyl)pyrimidine]: under 100 µM. As for `COc1cccc(Cn2ccc(-c3cc(C(F)(F)F)nc(S(C)(=O)=O)n3)c2)c1` [Compound 89, 4-(1-(3-methoxybenzyl)-1H-pyrrol-3-yl)-2-(methylsulfonyl)-6-(trifluoromethyl)pyrimidine], the 50% effective concentration (EC50) under setting [1] was under 100 µM.

On to `COc1cccc(Cn2ccc(-c3cc(C(F)(F)F)nc([S+](C)[O-])n3)c2)c1` (stereo not drawn) [Compound 90, 4-(1-(3-methoxybenzyl)-1H-pyrrol-3-yl)-2-(methylsulfinyl)-6-(trifluoromethyl)pyrimidine], for which the EC50 under setting [1] is under 100 µM. `COc1ccc(Cn2ccc(-c3cc(C(F)(F)F)nc(S(C)(=O)=O)n3)c2)cc1` [Compound 91, 4-(1-(4-methoxybenzyl)-1H-pyrrol-3-yl)-2-(methylsulfonyl)-6-(trifluoromethyl)pyrimidine]: under setting [1], the EC50 is under 100 µM. On to `COc1ccc(Cn2ccc(-c3cc(C(F)(F)F)nc([S+](C)[O-])n3)c2)cc1` (stereo not drawn) [Compound 92, 4-(1-(4-methoxybenzyl)-1H-pyrrol-3-yl)-2-(methylsulfinyl)-6-(trifluoromethyl)pyrimidine], for which the half-maximal effective concentration (EC50) under setting [1] is under 100 µM. Same read-out and setting: the same measure for `CS(=O)(=O)c1nc(-c2ccn(Cc3cccc(Cl)c3)c2)cc(C(F)(F)F)n1` [Compound 93, 4-(1-(3-chlorobenzyl)-1H-pyrrol-3-yl)-2-(methylsulfonyl)-6-(trifluoromethyl)pyrimidine]: under 100 µM; for `C[S+]([O-])c1nc(-c2ccn(Cc3cccc(Cl)c3)c2)cc(C(F)(F)F)n1` (stereo not drawn) [Compound 94, 4-(1-(3-chlorobenzyl)-1H-pyrrol-3-yl)-2-(methylsulfinyl)-6-(trifluoromethyl)pyrimidine]: under 100 µM. The same measure, in the same setting: next, `CS(=O)(=O)c1nc(-c2ccn(Cc3ccc(Cl)cc3)c2)cc(C(F)(F)F)n1` [Compound 95, 4-(1-(4-chlorobenzyl)-1H-pyrrol-3-yl)-2-(methylsulfonyl)-6-(trifluoromethyl)pyrimidine]: under 100 µM; `C[S+]([O-])c1nc(-c2ccn(Cc3ccc(Cl)cc3)c2)cc(C(F)(F)F)n1` (stereo not drawn) [Compound 96, 4-(1-(4-chlorobenzyl)-1H-pyrrol-3-yl)-2-(methylsulfinyl)-6-(trifluoromethyl)pyrimidine]: under 100 µM.

As for `CS(=O)(=O)c1nc(-c2ccn(Cc3cccc(C#N)c3)c2)cc(C(F)(F)F)n1` [Compound 97, 3-((3-(2-(methylsulfonyl)-6-(trifluoromethyl)pyrimidin-4-yl)-1H-pyrrol-1-yl)methyl)benzonitrile], under setting [1], the EC50 is under 100 µM. Take `C[S+]([O-])c1nc(-c2ccn(Cc3cccc(C#N)c3)c2)cc(C(F)(F)F)n1` (stereo not drawn) [Compound 98, 3-((3-(2-(methylsulfinyl)-6-(trifluoromethyl)pyrimidin-4-yl)-1H-pyrrol-1-yl)methyl)benzonitrile]: the EC50 under setting [1] was under 100 µM. Same read-out and setting: the same measure for `CS(=O)(=O)c1nc(-c2ccc(=O)[nH]c2)cc(C(F)(F)F)n1` [Compound 99, 5-(2-(methylsulfonyl)-6-(trifluoromethyl)pyrimidin-4-yl)pyridin-2 (1H)-one]: under 100 µM; for `C#CCn1cc(-c2cc(C(F)(F)F)nc(S(C)(=O)=O)n2)ccc1=O` [Compound 100, 5-(2-(methylsulfonyl)-6-(trifluoromethyl)pyrimidin-4-yl)-1-(prop-2-yn-1-yl) pyridin-2 (1H)-one]: 0.001 to 1 µM. In the case of `C#CCn1cc(-c2cc(C(F)(F)F)nc([S+](C)[O-])n2)ccc1=O` (stereo not drawn) [Compound 101, 5-(2-(methylsulfinyl)-6-(trifluoromethyl)pyrimidin-4-yl)-1-(prop-2-yn-1-yl) pyridin-2 (1H)-one], under setting [1], the EC50 is 1 to 10 µM. Same read-out and setting: next, `CS(=O)(=O)c1nc(-c2ccc(=O)n(CCN=[N+]=[N-])c2)cc(C(F)(F)F)n1` [Compound 102, 1-(2-azidoethyl)-5-(2-(methylsulfonyl)-6-(trifluoromethyl)pyrimidin-4-yl) pyridin-2 (1H)-one]: 1 to 10 µM. The molecule `CS(=O)(=O)c1nc(-c2ccc(=O)n(Cc3ccccc3)c2)cc(C(F)(F)F)n1` [Compound 103, 1-Benzyl-5-(2-(methylsulfonyl)-6-(trifluoromethyl)pyrimidin-4-yl)pyridin-2 (1H)-one] registered an EC50 of 1 to 10 µM.

With `CS(=O)(=O)c1nc(-c2ccc(=O)n(Cc3ccccc3Cl)c2)cc(C(F)(F)F)n1` [Compound 104, 1-(2-chlorobenzyl)-5-(2-(methylsulfonyl)-6-(trifluoromethyl)pyrimidin-4-yl)pyridin-2 (1H)-one], the half-maximal effective concentration (EC50) under setting [1] lay in the range of 0.001 to 1 µM. The same measure, in the same setting: next, `CS(=O)(=O)c1nc(-c2ccc(=O)n(Cc3cccc(Cl)c3)c2)cc(C(F)(F)F)n1` [Compound 105, 1-(3-chlorobenzyl)-5-(2-(methylsulfonyl)-6-(trifluoromethyl)pyrimidin-4-yl)pyridin-2 (1H)-one]: 0.001 to 1 µM; `CS(=O)(=O)c1nc(-c2ccc(=O)n(Cc3ccc(Cl)cc3)c2)cc(C(F)(F)F)n1` [Compound 106, 1-(4-chlorobenzyl)-5-(2-(methylsulfonyl)-6-(trifluoromethyl)pyrimidin-4-yl)pyridin-2 (1H)-one]: 0.001 to 1 µM.

For the origin of these results see patent US11725000B2, “Apoptosis inhibitors” (National Institute of Biological Sciences, Beijing, priority 2017, dated 2023).
